{
  "source": "patent US20150209327A1",
  "about": "“METHODS FOR THE TREATMENT OF OBESITY USING APREMILAST” (Celgene Corporation, priority 2014, published 2015)",
  "format_in_all_cases": "biochemical",
  "key": {"PDE1": {"test_system": "PDE1", "assay": "PDE1 enzyme assay", "conditions": "at 10 μM", "description": "(§1) PDE1, 2, 3 and 5 enzyme assays were prepared as described by Hidaka and Asano. Biochem. Biophys. Acta., 1976, 429:485; see also Nicholsen et al., Trends Pharmaco. Sci., 1991, 12:19. The PDE6 enzyme assay was prepared according to Baehr et al., J. Biol. Chem., 1979, 254:11669 and Gillespie et al., Mol. Pharm., 1989, 36: 773. The PDE7 enzyme assay was prepared according to Bloom and Beavo. Proc. Natl. Acad. Sci. USA, 1996, 93:14188-92."}, "[1]": {"test_system": "Phosphodiesterase 4 enzyme", "assay": "Inhibition of PDE4 (enzyme purified from U937 human monocytic cells)", "conditions": "1 μM cAMP, 45 min at 30° C.", "description": "Inhibition of PDE4: Phosphodiesterase 4 enzyme was purified from U937 human monocytic cells by gel filtration chromatography, and phosphodiesterase reactions were carried out as previously described. See Muller et al., Bioorg. Med. Chem. Lett., 1998, 8(19): 2669-2674. Briefly, reactions were carried out in 96-well deep-well plates in 50 mM Tris HCl pH 7.5, 5 mM MgCl2, 1 μM cyclic adenosine monophosphate (cAMP), plus 10 nM [3H]-cAMP for 45 min at 30° C. The reactions were terminated by boiling, treated with 1 mg/ml snake venom, and separated using AG-1X8 ion exchange resin (BioRad). Reactions consumed less than 15% of available substrate."}, "PDE6": {"biological_target": "T1, PDE6 (Bos taurus, UniProt P11541+P23439)", "T1 sequence (P11541 1-859)": "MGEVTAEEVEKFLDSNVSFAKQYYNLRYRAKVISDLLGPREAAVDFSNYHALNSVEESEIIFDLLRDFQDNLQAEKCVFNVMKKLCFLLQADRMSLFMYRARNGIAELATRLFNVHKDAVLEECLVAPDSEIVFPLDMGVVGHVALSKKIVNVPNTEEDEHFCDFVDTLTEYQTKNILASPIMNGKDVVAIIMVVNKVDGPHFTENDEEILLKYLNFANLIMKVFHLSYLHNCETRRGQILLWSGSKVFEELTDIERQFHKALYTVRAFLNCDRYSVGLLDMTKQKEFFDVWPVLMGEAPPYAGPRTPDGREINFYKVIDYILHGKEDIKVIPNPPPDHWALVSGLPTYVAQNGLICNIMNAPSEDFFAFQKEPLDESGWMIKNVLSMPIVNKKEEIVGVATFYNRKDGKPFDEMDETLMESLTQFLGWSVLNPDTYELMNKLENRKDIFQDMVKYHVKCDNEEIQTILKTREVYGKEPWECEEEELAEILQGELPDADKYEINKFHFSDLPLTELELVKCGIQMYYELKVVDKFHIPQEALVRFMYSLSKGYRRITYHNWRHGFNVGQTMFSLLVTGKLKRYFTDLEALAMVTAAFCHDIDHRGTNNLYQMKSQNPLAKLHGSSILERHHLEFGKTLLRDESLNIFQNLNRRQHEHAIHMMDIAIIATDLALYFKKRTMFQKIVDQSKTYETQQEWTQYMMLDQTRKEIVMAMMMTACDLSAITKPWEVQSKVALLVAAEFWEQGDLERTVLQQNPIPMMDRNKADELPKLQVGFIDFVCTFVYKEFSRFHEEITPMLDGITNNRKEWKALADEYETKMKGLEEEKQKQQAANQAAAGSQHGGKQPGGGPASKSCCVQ", "T1 sequence (P23439 1-853)": "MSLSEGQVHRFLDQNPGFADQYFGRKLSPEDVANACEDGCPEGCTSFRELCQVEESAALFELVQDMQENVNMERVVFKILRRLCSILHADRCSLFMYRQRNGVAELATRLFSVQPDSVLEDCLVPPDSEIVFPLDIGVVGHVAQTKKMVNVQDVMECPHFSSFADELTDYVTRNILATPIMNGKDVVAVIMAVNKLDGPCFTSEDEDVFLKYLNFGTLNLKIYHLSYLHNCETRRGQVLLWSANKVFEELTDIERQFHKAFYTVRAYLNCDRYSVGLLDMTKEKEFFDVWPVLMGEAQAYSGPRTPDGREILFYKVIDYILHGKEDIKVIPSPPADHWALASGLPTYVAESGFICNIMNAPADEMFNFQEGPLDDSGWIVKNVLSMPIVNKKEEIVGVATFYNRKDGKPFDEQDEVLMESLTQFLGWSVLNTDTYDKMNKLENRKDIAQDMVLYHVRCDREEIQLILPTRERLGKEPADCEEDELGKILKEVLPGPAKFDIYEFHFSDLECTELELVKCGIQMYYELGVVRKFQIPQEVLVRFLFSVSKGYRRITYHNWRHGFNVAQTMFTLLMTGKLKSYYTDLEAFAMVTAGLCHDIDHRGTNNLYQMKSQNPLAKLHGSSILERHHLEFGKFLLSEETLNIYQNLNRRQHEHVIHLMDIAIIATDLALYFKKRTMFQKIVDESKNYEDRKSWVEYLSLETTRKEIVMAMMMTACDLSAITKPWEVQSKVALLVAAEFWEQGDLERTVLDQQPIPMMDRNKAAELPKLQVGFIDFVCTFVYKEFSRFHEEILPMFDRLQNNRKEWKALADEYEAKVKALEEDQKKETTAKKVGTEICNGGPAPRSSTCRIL", "assay": "PDE6 enzyme assay", "description": "as §1"}},
  "data": [
    {"molecule": "CCOc1cc([C@@H](CS(C)(=O)=O)N2C(=O)c3cccc(NC(C)=O)c3C2=O)ccc1OC", "note": "[Apremilast, (+)-2-[1-(3-ethoxy-4-methoxyphenyl)-2-methylsulfonylethyl]-4-acetylaminoisoindoline-1,3-dione]", "values": [
      {"measurement": "% inhibition of PDE1", "setting": "PDE1", "result": 23, "unit": "%"},
      {"measurement": "IC50", "setting": "[1]", "result": 73.5, "unit": "nM"},
      {"measurement": "inhibition at 10 µM", "setting": "PDE6", "result": -6, "unit": "%"}
    ]}
  ]
}
